# Measured values taken from patent US8513232B2, “Substituted spirocyclic piperidine derivatives as histamine-3 (H3) receptor ligands” (Cephalon, Inc., priority 2008, dated 2013).
# Like-named read-outs stand apart in the source and are kept apart here.
# Tests used:
# human H3 receptor = target: T1, human H3 receptor (Homo sapiens, UniProt Q9Y5N1); assay: Human H3 radioligand binding ([3H]-N-alpha-methylhistamine, SPA)
# T1 construct: expressed in transfected cells
# Summary of the method: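 Compounds (0.01 nM-30 μM) competed with approximately 1 nM [3H]-N-alpha-methylhistamine for human H3 receptor in membranes of stably transfected CHO cells, 10 μg protein per well, in Tris-HCl pH 7.4/MgCl2/BSA buffer for 4 h at room temperature. Bound radioligand measured by scintillation proximity; 10 μM clobenpropit gave non-specific binding.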
# [1] = target: T2, rat histamine H3 receptor (Rattus norvegicus, UniProt Q9QYN8); assay: Rat H3 radioligand binding ([3H]-N-alpha-methylhistamine, SPA)
# T2 construct: encoding the entire 445-amino-acid rat histamine H3 receptor; expressed in transfected cells; membrane preparation
# Summary of the method: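 SPA-bead binding assay using [3H]-N-alpha-methylhistamine (approximately 1 nM final) with test compounds from 0.01 nM to 30 μM. Rat H3 receptor membranes came from stably transfected CHO-A3 cells; incubation ran 4 h at room temperature, in the dark, in Tris pH 7.4 buffer with MgCl2 and BSA. Clobenpropit (10 μM) gave non-specific binding.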
# [2] = human H3 binding, Table D, read-out: Human H3 Ki
# [3] = rat H3 binding, Table D, read-out: Rat H3 Ki
# [4] = Human H3 binding, Table B, Examples 136-362, read-out: hum H3 binding Ki
# [5] = Rat H3 binding, Table B, Examples 136-362, read-out: rat H3 binding Ki
# [6] = Table C, human H3 binding, read-out: Human H3 Ki
# [7] = Table C, rat H3 binding, read-out: Rat H3 Ki
# T2 sequence (Q9QYN8 whole entry): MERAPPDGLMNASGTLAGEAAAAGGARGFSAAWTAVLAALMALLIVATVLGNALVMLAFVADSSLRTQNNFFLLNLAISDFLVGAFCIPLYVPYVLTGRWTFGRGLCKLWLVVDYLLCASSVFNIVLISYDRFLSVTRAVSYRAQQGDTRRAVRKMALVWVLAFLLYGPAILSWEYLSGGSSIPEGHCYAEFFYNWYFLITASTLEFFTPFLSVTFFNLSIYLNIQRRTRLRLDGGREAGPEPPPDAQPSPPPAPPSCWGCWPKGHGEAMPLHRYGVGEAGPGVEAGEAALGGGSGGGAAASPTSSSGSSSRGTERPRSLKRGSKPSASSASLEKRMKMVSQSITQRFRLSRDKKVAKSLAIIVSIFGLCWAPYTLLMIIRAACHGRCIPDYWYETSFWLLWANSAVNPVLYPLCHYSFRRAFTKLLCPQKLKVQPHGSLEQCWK
# T1 sequence (Q9Y5N1 whole entry): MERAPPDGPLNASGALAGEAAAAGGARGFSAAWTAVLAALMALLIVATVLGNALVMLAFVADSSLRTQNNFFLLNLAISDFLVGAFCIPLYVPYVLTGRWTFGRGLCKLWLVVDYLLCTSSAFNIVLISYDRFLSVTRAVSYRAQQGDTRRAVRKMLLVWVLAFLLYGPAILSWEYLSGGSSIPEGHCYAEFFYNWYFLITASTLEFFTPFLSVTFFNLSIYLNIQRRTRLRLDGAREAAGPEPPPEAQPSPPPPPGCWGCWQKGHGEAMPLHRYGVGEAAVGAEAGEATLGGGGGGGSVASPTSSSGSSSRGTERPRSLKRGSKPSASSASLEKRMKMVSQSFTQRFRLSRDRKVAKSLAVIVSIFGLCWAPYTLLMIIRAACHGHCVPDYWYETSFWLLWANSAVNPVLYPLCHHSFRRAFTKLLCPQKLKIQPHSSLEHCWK
Ki (human H3 receptor; [2]),"Ki [1, 3]",melting point,SMILES,also measured
< 200 nM,< 200 nM,241 to 243 °C,CC(C)(C)N1CCC2(CC1)OCc1cc(-c3ccc(=O)[nH]c3)ccc1O2 [Example 733],–
> 1000 nM,> 1000 nM,247 to 249 °C,CN(C)C(=O)C1CC(N2CCC3(CC2)OCc2cc(-c4ccc(=O)[nH]c4)ccc2O3)C1 (stereo not drawn) [Example 735],–
< 200 nM,< 200 nM,230 to 231 °C,Cn1cc(-c2ccc3c(c2)COC2(CCN(C4CCC4)CC2)O3)cnc1=O [Example 680],–
< 200 nM,< 200 nM,89 to 91 °C,CNC(=O)c1cc(-c2ccc3c(c2)CCC2(CCN(C4CCC4)CC2)O3)ccc1Cl [Example 582],–
–,–,210.2 to 212.6 °C,O=C(NC1CCN(c2ccc3c(c2)COC2(CCN(C4CCC4)CC2)O3)CC1)N1CCCC1 [Example 319],"Ki (human H3 receptor; [4]): < 200 nM; Ki [1, 5]: < 200 nM"
–,–,185 to 189 °C,O=C1N(c2ccncc2)CCN1c1ccc2c(c1)COC1(CCN(C3CCC3)CC1)O2 [Example 178],"Ki (human H3 receptor; [4]): < 200 nM; Ki [1, 5]: < 200 nM"
–,–,141 to 142.2 °C,CNC(=O)c1ccc(-c2ccc3c(c2)CCOC2(CCN(C4CCC4)CC2)O3)cn1 [Example 175],"Ki (human H3 receptor; [4]): 200 to 1000 nM; Ki [1, 5]: > 1000 nM"
< 200 nM,< 200 nM,75 to 78 °C,CN(C)C(=O)c1ccc(COc2ccc3c(c2)CCC2(CCN(C4CCC4)CC2)O3)nc1 [Example 674],–
–,–,249 to 250 °C,c1cc2c(cc1C1CCOC1)COC1(CCN(C3CCC3)CC1)O2 (stereo not drawn) [Example 507],Ki (human H3 receptor; read-out: Human H3 Ki): < 200 nM; Ki ([1]; read-out: Rat H3 kI): < 200 nM
–,–,254 to 255 °C,O=C(Nc1ccc2c(c1)COC1(CCN(C3CCC3)CC1)O2)c1ccc2nccn2c1 [Example 345],"Ki (human H3 receptor; [4]): < 200 nM; Ki [1, 5]: < 200 nM"
–,–,278 to 280 °C,O=c1ccc(N2CCN(c3ccc4c(c3)CCC3(CCN(C5CCC5)CC3)O4)CC2)n[nH]1 [Example 419],"Ki (human H3 receptor; [6]): < 200 nM; Ki [1, 7]: < 200 nM"
< 200 nM,< 200 nM,123 to 126 °C,COc1ccc(-c2ccc3c(c2)COC2(CCN(C4CCC4)CC2)O3)nc1 [Example 650],–
–,–,> 283 °C (dec.),FC1(F)CCN(c2ccc3c(c2)CCC2(CCN(C4CCC4)CC2)O3)CC1 [Example 404],"Ki (human H3 receptor; [6]): < 200 nM; Ki [1, 7]: < 200 nM"
< 200 nM,< 200 nM,131 to 132 °C,CC(C)Oc1cc(-c2ccc3c(c2)COC2(CCN(C4CCC4)CC2)O3)c(Cl)cn1 [Example 780],–
–,–,95 to 97 °C,CNC(=O)c1ccc(-c2cc3c(cc2Cl)OC2(CCN(C4CCC4)CC2)OC3)cc1 [Example 266],"Ki (human H3 receptor; [4]): < 200 nM; Ki [1, 5]: < 200 nM"
–,–,49 to 51 °C,COCCNC(=O)c1ccc(-c2cc3c(cc2Cl)OC2(CCN(C4CCC4)CC2)OC3)cc1 [Example 264],"Ki (human H3 receptor; [4]): < 200 nM; Ki [1, 5]: 200 to 1000 nM"
–,–,> 275 °C (dec.),FC1(F)CCN(c2ccc3c(c2)CCC2(CCN(C4CCC4)CC2)O3)C1 [Example 413],"Ki (human H3 receptor; [6]): < 200 nM; Ki [1, 7]: < 200 nM"
–,–,> 265 °C (dec.),c1ccc(OC2CCN(c3ccc4c(c3)CCC3(CCN(C5CCC5)CC3)O4)CC2)cc1 [Example 432],"Ki (human H3 receptor; [6]): < 200 nM; Ki [1, 7]: < 200 nM"
–,–,166 to 168 °C,O=C(Cc1ccccn1)Nc1ccc2c(c1)COC1(CCN(C3CCC3)CC1)O2 [Example 322],"Ki (human H3 receptor; [4]): < 200 nM; Ki [1, 5]: < 200 nM"
–,–,275 to 280 °C,F[C@@H]1CCN(c2ccc3c(c2)CCC2(CCN(C4CCC4)CC2)O3)C1 [Example 414],"Ki (human H3 receptor; [6]): < 200 nM; Ki [1, 7]: < 200 nM"

Ki (human H3 receptor; [2]),"Ki [1, 3]",melting point,SMILES,also measured
–,–,209 to 210 °C,Cc1cnccc1C(=O)Nc1ccc2c(c1)COC1(CCN(C3CCC3)CC1)O2 [Example 353],"Ki (human H3 receptor; [4]): < 200 nM; Ki [1, 5]: < 200 nM"
–,–,153 to 155 °C,c1cc2c(cc1C1CCSCC1)COC1(CCN(C3CCC3)CC1)O2 [Example 480],Ki (human H3 receptor; read-out: Human H3 Ki): < 200 nM; Ki ([1]; read-out: Rat H3 kI): < 200 nM
< 200 nM,< 200 nM,155 to 156 °C,CC(C)NC(=O)c1ccc(-c2ccc3c(c2)CCC2(CCN(C4CCC4)CC2)O3)cc1Cl [Example 587],–
< 200 nM,< 200 nM,156 to 160 °C,CCc1cc(OC)ncc1-c1ccc2c(c1)COC1(CCN(C3CCC3)CC1)O2 [Example 802],–
< 200 nM,< 200 nM,100 to 102 °C,COc1cc(C(=O)NC2CCOCC2)ccc1-c1ccc2c(c1)COC1(CCN(C3CCC3)CC1)O2 [Example 688],–
< 200 nM,< 200 nM,200 to 202 °C,Cc1ccncc1-c1ccc2c(c1)COC1(CCN(C3CCC3)CC1)O2 [Example 745],–
–,–,169 to 171 °C,Cc1ncoc1C(=O)Nc1ccc2c(c1)CCC1(CCN(C3CCC3)CC1)O2 [Example 243],"Ki (human H3 receptor; [4]): < 200 nM; Ki [1, 5]: < 200 nM"
< 200 nM,< 200 nM,211 to 213 °C,CCc1cc(-c2ccc3c(c2)COC2(CCN(C4CCC4)CC2)O3)c(C)[nH]c1=O [Example 808],–
< 200 nM,< 200 nM,143 to 145 °C,Cc1c(-c2ccc3c(c2)COC2(CCN(C4CCC4)CC2)O3)ccc(=O)n1C(F)F [Example 763],–
–,–,207 to 209 °C,O=c1cccc(-c2ccc3c(c2)COC2(CCN(C4CCC4)CC2)O3)[nH]1 [Example 476],Ki (human H3 receptor; read-out: Human H3 Ki): < 200 nM; Ki ([1]; read-out: Rat H3 kI): < 200 nM
–,–,205 to 207 °C,O=C(Nc1ccc2c(c1)COC1(CCN(C3CCC3)CC1)O2)c1ccnc(N2CCOCC2)c1 [Example 313],"Ki (human H3 receptor; [4]): < 200 nM; Ki [1, 5]: < 200 nM"
–,–,85 to 90 °C,CC(C)NS(=O)(=O)c1ccc(-c2ccc3c(c2)COC2(CCN(C4CCC4)CC2)O3)cc1 [Example 35],"Ki (human H3 receptor; Table A, human H3 binding, read-out: Human Ki): < 200 nM; Ki ([1]; Table A, rat H3 binding, read-out: Rat Ki): < 200 nM"
–,–,233 to 235 °C,c1cc(COc2ccc3c(c2)CCC2(CCN(C4CCC4)CC2)O3)ccn1 [Example 269],"Ki (human H3 receptor; [4]): < 200 nM; Ki [1, 5]: < 200 nM"
–,–,182 to 184 °C,O=C1CC(c2ccc3c(c2)COC2(CCN(C4CCC4)CC2)O3)CCN1 (stereo not drawn) [Example 565],Ki (human H3 receptor; read-out: Human H3 Ki): < 200 nM; Ki ([1]; read-out: Rat H3 kI): < 200 nM
–,–,236 to 238 °C,CCOC(=O)C1CCC(Oc2ccc3c(c2)CCC2(CCN(C4CCC4)CC2)O3)CC1 (stereo not drawn) [Example 456],Ki (human H3 receptor; read-out: Human H3 Ki): < 200 nM; Ki ([1]; read-out: Rat H3 kI): < 200 nM
–,–,171 to 172 °C,c1ccc(N2CCN(c3ccc4c(c3)CCC3(CCN(C5CCC5)CC3)O4)CC2)nc1 [Example 368],"Ki (human H3 receptor; [6]): < 200 nM; Ki [1, 7]: < 200 nM"
< 200 nM,< 200 nM,142.6 to 145.1 °C,CC(C)S(=O)(=O)C1CCN(c2ccc3c(c2)COC2(CCN(C4CCC4)CC2)O3)CC1 [Example 656],–
–,–,305 to 307 °C,O=C(C1CCCN(c2ccc3c(c2)CCC2(CCN(C4CCC4)CC2)O3)C1)N1CCCC1 (stereo not drawn) [Example 451],Ki (human H3 receptor; read-out: Human H3 Ki): < 200 nM; Ki ([1]; read-out: Rat H3 kI): < 200 nM
< 200 nM,< 200 nM,89 to 92 °C,Cc1c(-c2ccc3c(c2)COC2(CCN(C4CCC4)CC2)O3)cn(C(C)C)c(=O)c1C [Example 776],–
< 200 nM,< 200 nM,250 °C (dec.),COc1ncc(-c2ccc3c(c2)COC2(CCN(C4CCC4)CC2)O3)c(OC)n1 [Example 662],–
